System: MV-4-11 cells
Assay: Gene expression microarray analysis (Affymetrix PrimeView) and GSEA
Type: cell-based, human
Set-up: RFU PODN (11730768_x_at) / Fold change /veh PODN (11730768_x_at) / RFU LINC00158 (11744669_a_at) / Fold change /veh LINC00158 (11744669_a_at) / RFU DUSP10 (11751237_a_at) / Fold change /veh DUSP10 (11751237_a_at) / RFU ID3 (11757404_x_at) / Fold change /veh ID3 (11757404_x_at) / RFU PLEKHG5 (11737974_s_at) / Fold change /veh PLEKHG5 (11737974_s_at) / RFU LRRC4B (11730491_at) / Fold change /veh LRRC4B (11730491_at) / RFU GIMAP4 (11747438_a_at) / Fold change /veh GIMAP4 (11747438_a_at) / RFU KRT8 (11758183_x_at) / Fold change /veh KRT8 (11758183_x_at) / RFU CNN1 (11734310_a_at) / Fold change /veh CNN1 (11734310_a_at) / RFU VPS37D (11726825_at) / Fold change /veh VPS37D (11726825_at) / RFU C10orf10 (11716522_x_at) / Fold change /veh C10orf10 (11716522_x_at) / RFU KIR2DL2 /// KIR2DL4 /// KIR2DL5A /// KIR2DL5B /// KIR2DS1 /// KIR2DS2 /// KIR2DS3 /// KIR2DS4 /// KIR3DL3 /// KIR3DL3 /// KIR3DS1 (11738374_at) / Fold change /veh KIR2DL2 /// KIR2DL4 /// KIR2DL5A /// KIR2DL5B /// KIR2DS1 /// KIR2DS2 /// KIR2DS3 /// KIR2DS4 /// KIR3DL3 /// KIR3DL3 /// KIR3DS1 (11738374_at) / RFU C1QL1 (11718748_at) / Fold change /veh C1QL1 (11718748_at) / RFU TMPRSS4 (11747572_a_at) / Fold change /veh TMPRSS4 (11747572_a_at) / RFU HAMP (11756126_x_at) / Fold change /veh HAMP (11756126_x_at) / RFU RNFT2 (11725882_a_at) / Fold change /veh RNFT2 (11725882_a_at) / RFU NR4A2 (11747474_a_at) / Fold change /veh NR4A2 (11747474_a_at) / RFU ABCC12 (11746883_a_at) / Fold change /veh ABCC12 (11746883_a_at) / RFU TMEM136 (11760407_x_at) / Fold change /veh TMEM136 (11760407_x_at) / RFU CLDN22 /// WWC2 (11732394_at) / Fold change /veh CLDN22 /// WWC2 (11732394_at) / RFU HLA-DPB1 (11760878_x_at) / Fold change /veh HLA-DPB1 (11760878_x_at) / RFU SPINT1 (11716480_a_at) / Fold change /veh SPINT1 (11716480_a_at) / RFU GAP43 (11754022_s_at) / Fold change /veh GAP43 (11754022_s_at) / RFU A4GNT (11735810_at) / Fold change /veh A4GNT (11735810_at) / RFU PRB3 (11715151_x_at) / Fold change /veh PRB3 (11715151_x_at) / RFU TUBB4B (11761932_at) / Fold change /veh TUBB4B (11761932_at) / RFU CAPN14 (11732068_a_at) / Fold change /veh CAPN14 (11732068_a_at) / RFU TMCC2 (11721928_a_at) / Fold change /veh TMCC2 (11721928_a_at) / RFU IRGQ (11745062_a_at) / Fold change /veh IRGQ (11745062_a_at) / RFU FAM174B (11720279_a_at) / Fold change /veh FAM174B (11720279_a_at) / RFU TMPRSS4 (11748680_a_at) / Fold change /veh TMPRSS4 (11748680_a_at) / RFU FAM212B (11763350_a_at) / Fold change /veh FAM212B (11763350_a_at) / RFU PLEKHG5 (11743358_a_at) / Fold change /veh PLEKHG5 (11743358_a_at) / RFU ZSCAN30 (11745921_a_at) / Fold change /veh ZSCAN30 (11745921_a_at) / RFU CMKLR1 (11741424_a_at) / Fold change /veh CMKLR1 (11741424_a_at) / RFU LOC101060620 /// MAPK8IP1 (11723275_at) / Fold change /veh LOC101060620 /// MAPK8IP1 (11723275_at) / RFU SPTSSB (11747773_x_at) / Fold change /veh SPTSSB (11747773_x_at) / RFU PRSS12 (11739890_at) / Fold change /veh PRSS12 (11739890_at) / RFU BIN1 (11741810_x_at) / Fold change /veh BIN1 (11741810_x_at) / RFU WNT11 (11732464_a_at) / Fold change /veh WNT11 (11732464_a_at) / RFU C10orf10 (11716521_a_at) / Fold change /veh C10orf10 (11716521_a_at) / RFU C5orf56 (11738089_at) / Fold change /veh C5orf56 (11738089_at) / RFU CYB561 (11721691_x_at) / Fold change /veh CYB561 (11721691_x_at) / RFU ANKRD19P (11752326_a_at) / Fold change /veh ANKRD19P (11752326_a_at) / RFU OR2T12 /// OR2T33 /// OR2T8 (11738714_s_at) / Fold change /veh OR2T12 /// OR2T33 /// OR2T8 (11738714_s_at) / RFU VCAN (11748164_a_at) / Fold change /veh VCAN (11748164_a_at) / RFU JSRP1 (11732532_at) / Fold change /veh JSRP1 (11732532_at) / RFU KRTAP10-11 (11738290_x_at) / Fold change /veh KRTAP10-11 (11738290_x_at) / RFU MYO3A (11730013_a_at) / Fold change /veh MYO3A (11730013_a_at) / RFU EBF3 (11725865_a_at) / Fold change /veh EBF3 (11725865_a_at) / RFU CAMK2N1 (11719241_x_at) / Fold change /veh CAMK2N1 (11719241_x_at) / RFU C5orf56 (11738088_a_at) / Fold change /veh C5orf56 (11738088_a_at) / RFU OLFML3 (11715873_a_at) / Fold change /veh OLFML3 (11715873_a_at) / RFU LOC100653217 /// NTM (11731650_a_at) / Fold change /veh LOC100653217 /// NTM (11731650_a_at) / RFU MAPK11 (11762145_a_at) / Fold change /veh MAPK11 (11762145_a_at) / RFU FIZ1 (11724087_x_at) / Fold change /veh FIZ1 (11724087_x_at) / RFU OASL (11726364_x_at) / Fold change /veh OASL (11726364_x_at) / RFU SOX15 (11748057_x_at) / Fold change /veh SOX15 (11748057_x_at) / RFU CD79A (11719716_a_at) / Fold change /veh CD79A (11719716_a_at) / RFU HIST1H1D (11736915_at) / Fold change /veh HIST1H1D (11736915_at) / RFU CASKIN2 (11723855_a_at) / Fold change /veh CASKIN2 (11723855_a_at) / RFU LOC730098 (11760151_x_at) / Fold change /veh LOC730098 (11760151_x_at) / RFU OR4N2 (11742367_at) / Fold change /veh OR4N2 (11742367_at) / RFU PRRT2 (11749266_a_at) / Fold change /veh PRRT2 (11749266_a_at) / RFU SNX32 (11753110_a_at) / Fold change /veh SNX32 (11753110_a_at) / RFU CDHR5 (11726645_a_at) / Fold change /veh CDHR5 (11726645_a_at) / RFU RCAN1 (11760418_a_at) / Fold change /veh RCAN1 (11760418_a_at) / RFU FAM167A (11723789_a_at) / Fold change /veh FAM167A (11723789_a_at) / RFU FAM26E (11764081_at) / Fold change /veh FAM26E (11764081_at) / RFU ISYNA1 (11749810_s_at) / Fold change /veh ISYNA1 (11749810_s_at) / RFU ACY1 (11761880_at) / Fold change /veh ACY1 (11761880_at) / RFU 11764098_at / Fold change /veh 11764098_at / RFU SAMD14 (11745864_x_at) / Fold change /veh SAMD14 (11745864_x_at) / RFU NPB (11741838_a_at) / Fold change /veh NPB (11741838_a_at) / RFU TMPRSS6 (11731388_a_at) / Fold change /veh TMPRSS6 (11731388_a_at) / RFU KRTAP10-2 (11738614_at) / Fold change /veh KRTAP10-2 (11738614_at) / RFU ARHGAP8 /// PRR5-ARHGAP8 (11727945_x_at) / Fold change /veh ARHGAP8 /// PRR5-ARHGAP8 (11727945_x_at) / RFU KRTAP5-7 /// NADSYN1 (11734609_at) / Fold change /veh KRTAP5-7 /// NADSYN1 (11734609_at) / RFU RASL12 (11751679_a_at) / Fold change /veh RASL12 (11751679_a_at) / RFU CDKN2B (11736163_a_at) / Fold change /veh CDKN2B (11736163_a_at) / RFU PRF1 (11729649_at) / Fold change /veh PRF1 (11729649_at) / RFU, ZNF638 /// ZNF638-IT1 / Fold change vs veh, ZNF638 /// ZNF638-IT1 / RFU, PANK3 / Fold change vs veh, PANK3 / RFU, SH3YL1 / Fold change vs veh, SH3YL1 / RFU, ZEB2 / Fold change vs veh, ZEB2 / RFU, NRIP1 / Fold change vs veh, NRIP1 / RFU, PTTG1IP / Fold change vs veh, PTTG1IP / RFU, CAPN2 / Fold change vs veh, CAPN2 / RFU, MED14 / Fold change vs veh, MED14 / RFU, SNORA58 / Fold change vs veh, SNORA58 / RFU, C1orf63 / Fold change vs veh, C1orf63 / RFU, LRRFIP1 / Fold change vs veh, LRRFIP1 / RFU, NDUFAF7 / Fold change vs veh, NDUFAF7 / RFU, SLC12A2 / Fold change vs veh, SLC12A2 / RFU, IBTK / Fold change vs veh, IBTK / RFU, ESF1 / Fold change vs veh, ESF1 / Fold change vs veh, TMEM50B / RFU, TAOK1 / Fold change vs veh, TAOK1 / RFU, ACBD3 / Fold change vs veh, ACBD3 / RFU, TMA16 / Fold change vs veh, TMA16 / RFU, RWDD3 / Fold change vs veh, RWDD3 / RFU, BCAT1 / Fold change vs veh, BCAT1 / RFU, EDEM3 / Fold change vs veh, EDEM3 / RFU, TMEM33 / Fold change vs veh, TMEM33 / RFU, WDR75 / Fold change vs veh, WDR75 / RFU, AHCTF1 / Fold change vs veh, AHCTF1 / RFU, TFRC / Fold change vs veh, TFRC / RFU, ZDHHC17 / Fold change vs veh, ZDHHC17 / RFU, NOM1 / Fold change vs veh, NOM1 / RFU, ARL8B / Fold change vs veh, ARL8B / RFU, ZBTB11 / Fold change vs veh, ZBTB11 / RFU, TAMM41 / Fold change vs veh, TAMM41 / RFU, KIAA1704 /// LOC100996395 / Fold change vs veh, KIAA1704 /// LOC100996395 / RFU, ING1 / Fold change vs veh, ING1 / RFU, TRMT61B / Fold change vs veh, TRMT61B / RFU, FUBP3 / Fold change vs veh, FUBP3 / RFU, TP53 / Fold change vs veh, TP53 / RFU, TNKS2 / Fold change vs veh, TNKS2 / RFU, ZFP14 / Fold change vs veh, ZFP14 / RFU, ACTR2 / Fold change vs veh, ACTR2 / RFU, PPP3R1 / Fold change vs veh, PPP3R1 / RFU, PIK3R1 / Fold change vs veh, PIK3R1 / RFU, HNRNPA1 / Fold change vs veh, HNRNPA1 / RFU, RNF170 / Fold change vs veh, RNF170 / RFU, ZNF28 / Fold change vs veh, ZNF28 / RFU, RNGTT / Fold change vs veh, RNGTT / RFU, OGT / Fold change vs veh, OGT / RFU, BRD1 / Fold change vs veh, BRD1 / RFU, MARS / Fold change vs veh, MARS / RFU, ZNF655 / Fold change vs veh, ZNF655 / RFU, FAHD1 / Fold change vs veh, FAHD1 / RFU, BDP1 / Fold change vs veh, BDP1 / RFU, LRRCC1 / Fold change vs veh, LRRCC1 / RFU, ARID1A / Fold change vs veh, ARID1A / RFU, ZNF146 / Fold change vs veh, ZNF146 / RFU, ZNF330 / Fold change vs veh, ZNF330 / RFU, GPN3 / Fold change vs veh, GPN3 / RFU, C9orf123 / Fold change vs veh, C9orf123 / RFU, N4BP2L2 / Fold change vs veh, N4BP2L2 / RFU, ARFIP1 / Fold change vs veh, ARFIP1 / RFU, FAM179B / Fold change vs veh, FAM179B / RFU, BCL10 / Fold change vs veh, BCL10 / RFU, UHRF1BP1L / Fold change vs veh, UHRF1BP1L / RFU, BET1 / Fold change vs veh, BET1 / RFU, CNOT2 / Fold change vs veh, CNOT2 / RFU, ZNF268 / Fold change vs veh, ZNF268 / Fold change vs veh, ZNF507 / RFU, DGCR2 / Fold change vs veh, DGCR2 / RFU, WDSUB1 / Fold change vs veh, WDSUB1 / Fold change vs veh, HSP90B1 /// MIR3652 / RFU, ADSS / Fold change vs veh, ADSS / RFU, GK / Fold change vs veh, GK / RFU, ZNF148 / Fold change vs veh, ZNF148 / RFU, TAF9 / Fold change vs veh, TAF9 / RFU, SLC1A5 / Fold change vs veh, SLC1A5 / RFU, SLMO2 / Fold change vs veh, SLMO2 / RFU, ABCC4 / Fold change vs veh, ABCC4 / RFU, LOC101060439 /// RAP1B / Fold change vs veh, LOC101060439 /// RAP1B / RFU, RFX7 / Fold change vs veh, RFX7 / RFU, GTPBP10 / Fold change vs veh, GTPBP10 / RFU, CNEP1R1 / Fold change vs veh, CNEP1R1 / RFU, BIVM-ERCC5 /// ERCC5 / Fold change vs veh, BIVM-ERCC5 /// ERCC5 / RFU, ILF3 / Fold change vs veh, ILF3 / RFU 11762660_at / Fold change /veh 11762660_at / RFU VCAN (11757783_s_at) / Fold change /veh VCAN (11757783_s_at) / RFU DDX43 (11728927_at) / Fold change /veh DDX43 (11728927_at) / RFU KRT8 (11758188_x_at) / Fold change /veh KRT8 (11758188_x_at) / RFU NKD1 (11759106_at) / Fold change /veh NKD1 (11759106_at) / RFU SRD5A1 (11742802_a_at) / Fold change /veh SRD5A1 (11742802_a_at) / RFU TPSAB1 /// TPSB2 (11721975_s_at) / Fold change /veh TPSAB1 /// TPSB2 (11721975_s_at) / RFU GSTM3 (11746129_a_at) / Fold change /veh GSTM3 (11746129_a_at) / RFU IL23R (11737362_x_at) / Fold change /veh IL23R (11737362_x_at) / RFU TMEM51 (11727254_a_at) / Fold change /veh TMEM51 (11727254_a_at) / RFU PIWIL2 (11732686_x_at) / Fold change /veh PIWIL2 (11732686_x_at) / RFU ORM1 (11744905_x_at) / Fold change /veh ORM1 (11744905_x_at) / RFU CCDC152 (11743942_at) / Fold change /veh CCDC152 (11743942_at) / RFU ECM1 (11717891_a_at) / Fold change /veh ECM1 (11717891_a_at) / RFU IL23R (11748794_a_at) / Fold change /veh IL23R (11748794_a_at) / RFU TNFAIP8L3 (11732012_x_at) / Fold change /veh TNFAIP8L3 (11732012_x_at) / RFU MBOAT4 (11741988_at) / Fold change /veh MBOAT4 (11741988_at) / RFU 11764193_at / Fold change /veh 11764193_at / RFU TMEM53 (11763286_at) / Fold change /veh TMEM53 (11763286_at) / RFU MAGEB2 (11727129_at) / Fold change /veh MAGEB2 (11727129_at) / RFU TMEM200A (11744735_a_at) / Fold change /veh TMEM200A (11744735_a_at) / RFU CCDC152 (11751479_a_at) / Fold change /veh CCDC152 (11751479_a_at) / RFU FAM211A (11726209_a_at) / Fold change /veh FAM211A (11726209_a_at) / RFU RGS16 (11746705_a_at) / Fold change /veh RGS16 (11746705_a_at) / RFU VCAN (11755009_s_at) / Fold change /veh VCAN (11755009_s_at) / RFU RHOB (11743442_s_at) / Fold change /veh RHOB (11743442_s_at) / RFU RGS16 (11720943_a_at) / Fold change /veh RGS16 (11720943_a_at) / RFU RGS16 (11720944_at) / Fold change /veh RGS16 (11720944_at) / RFU, VPS4B / Fold change vs veh, VPS4B / RFU, CREB1 / Fold change vs veh, CREB1 / RFU, DNAJC13 / Fold change vs veh, DNAJC13 / RFU, GNAQ / Fold change vs veh, GNAQ / RFU, CDK5R1 / Fold change vs veh, CDK5R1 / RFU, ZRANB3 / Fold change vs veh, ZRANB3 / RFU, CUL4A / Fold change vs veh, CUL4A / RFU, CCNY / Fold change vs veh, CCNY / RFU, UFL1 / Fold change vs veh, UFL1 / RFU, COG3 / Fold change vs veh, COG3 / RFU, DIAPH2 / Fold change vs veh, DIAPH2 / RFU, SKA2 / Fold change vs veh, SKA2 / RFU, AFF3 / Fold change vs veh, AFF3 / RFU, LMF1 / Fold change vs veh, LMF1 / RFU, IPO11 / Fold change vs veh, IPO11 / RFU, DFFB / Fold change vs veh, DFFB / RFU, FOXP1 / Fold change vs veh, FOXP1 / RFU, CARD8 / Fold change vs veh, CARD8 / RFU, STRN3 / Fold change vs veh, STRN3 / RFU, ADK / Fold change vs veh, ADK / RFU, RASSF2 / Fold change vs veh, RASSF2 / RFU, WIPF1 / Fold change vs veh, WIPF1 / RFU, LARP1B / Fold change vs veh, LARP1B / RFU, RASA1 / Fold change vs veh, RASA1 / RFU, RB1 / Fold change vs veh, RB1 / RFU, PPFIA1 / Fold change vs veh, PPFIA1 / RFU, MAT2A / Fold change vs veh, MAT2A / RFU, CCT5 / Fold change vs veh, CCT5 / RFU, WDR92 / Fold change vs veh, WDR92 / RFU, CUX1 / Fold change vs veh, CUX1 / RFU, TTC7A / Fold change vs veh, TTC7A / RFU, TMEM135 / Fold change vs veh, TMEM135 / RFU, DEPTOR / Fold change vs veh, DEPTOR / RFU, CPM / Fold change vs veh, CPM / RFU, DNAJB6 / Fold change vs veh, DNAJB6 / RFU, CACNA2D3 / Fold change vs veh, CACNA2D3 / RFU, DTX4 / Fold change vs veh, DTX4 / RFU, TFCP2 / Fold change vs veh, TFCP2 / RFU, GMCL1 /// GMCL1P1 / Fold change vs veh, GMCL1 /// GMCL1P1 / RFU, AEBP2 / Fold change vs veh, AEBP2 / RFU, SNHG1 /// SNORD22 /// SNORD25 /// SNORD26 /// SNORD27 /// SNORD28 /// SNORD29 /// SNORD31 / Fold change vs veh, SNHG1 /// SNORD22 /// SNORD25 /// SNORD26 /// SNORD27 /// SNORD28 /// SNORD29 /// SNORD31 / Fold change (Aza/veh), C12orf56 (ProbeSet 11735607_a_at) / Fold change (ACY-1035/veh), C12orf56 (ProbeSet 11735607_a_at) / Fold change (Aza/veh), FGFR1OP (ProbeSet 11751329_s_at) / Fold change (ACY-1035/veh), FGFR1OP (ProbeSet 11751329_s_at) / Fold change (Aza/veh), VPS36 (ProbeSet 11739960_a_at) / Fold change (ACY-1035/veh), VPS36 (ProbeSet 11739960_a_at) / RFU SYPL1 (11715823_x_at) / Fold change /veh SYPL1 (11715823_x_at) / RFU IGFBP7 (11715501_s_at) / Fold change /veh IGFBP7 (11715501_s_at) / RFU REEP3 (11722064_at) / Fold change /veh REEP3 (11722064_at) / RFU IGLL1 (11728026_x_at) / Fold change /veh IGLL1 (11728026_x_at): dose or concentration left out as unconfirmed
Conditions: ProbeSet 11732277_a_at; LIST D

Nc1ncn([C@@H]2O[C@H](CO)[C@@H](O)[C@H]2O)c(=O)n1 [azacitidine]
RFU, FOXP1: 363.93 RFU
